In patent US8748415B2 (priority 2011, dated 2014):

Tested on: recombinant NL4-3 virus (Renilla luciferase in nef, Gag P373S)
Experiment: HIV cell culture assay (luciferase activity in MT-2 cells infected with NLRluc recombinant virus)
Assay type: cell-based
In short: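 Activity was read as luciferase output (Dual Luciferase reagents premixed with lysis solution) after 4–5 days of infection in serially diluted inhibitor. Host cells were MT-2 in 10% FBS RPMI. The reporter virus came from transfected 293T cells and was titered on MT-2.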

[1] = NL43, MT-2 cells infected 4-5 days with NLRluc recombinant virus, class symbol

SMILES	EC50 [1]	other results
C=C(C)[C@@H]1CC[C@]2(CNCCN3CCN(S(C)(=O)=O)CC3)CC[C@]3(C)[C@H](CC[C@@H]4[C@@]5(C)CC=C(c6ccc(C(=O)O)cc6)C(C)(C)[C@@H]5CC[C@]43C)[C@@H]12 [Example 179, 4-((1R,3aS,5aR,5bR,7aR,11aS,11bR,13aR,13bR)-5a,5b,8,8,11a-pentamethyl-3a-((2-(4-(methylsulfonyl)piperazin-1-yl)ethylamino)methyl)-1-(prop-1-en-2-yl)-2,3,3a,4,5,5a,5b,6,7,7a,8,11,11a,11b,12,13,13a,13b-octadecahydro-1H-cyclopenta[a]chrysen-9-yl)benzoic acid]	< 0.1 µM	–
C=C(C)[C@@H]1CC[C@]2(CNCCC(=O)N3CCS(=O)(=O)CC3)CC[C@]3(C)[C@H](CC[C@@H]4[C@@]5(C)CC=C(c6ccc(C(=O)O)cc6)C(C)(C)[C@@H]5CC[C@]43C)[C@@H]12 [Example 118, 4-((1R,3aS,5aR,5bR,7aR,11aS,11bR,13aR,13bR)-3a-(((3-(1,1-dioxido-4-thiomorpholinyl)-3-oxopropyl)amino)methyl)-1-isopropenyl-5a,5b,8,8,11a-pentamethyl-2,3,3a,4,5,5a,5b,6,7,7a,8,11,11a,11b,12,13,13a,13b-octadecahydro-1H-cyclopenta[a]chrysen-9-yl)benzoic acid]	< 0.1 µM	–
C=C(C)[C@@H]1CC[C@]2(CNCCC(=O)N3CCCCC3)CC[C@]3(C)[C@H](CC[C@@H]4[C@@]5(C)CC=C(c6ccc(C(=O)O)cc6)C(C)(C)[C@@H]5CC[C@]43C)[C@@H]12 [Example 96, 4-((1R,3aS,5aR,5bR,7aR,11aS,11bR,13aR,13bR)-5a,5b,8,8,11a-pentamethyl-3a-((3-oxo-3-(piperidin-1-yl)propylamino)methyl)-1-(prop-1-en-2-yl)-2,3,3a,4,5,5a,5b,6,7,7a,8,11,11a,11b,12,13,13a,13b-octadecahydro-1H-cyclopenta[a]chrysen-9-yl)benzoic acid]	< 0.1 µM	–
C=C(C)[C@@H]1CC[C@]2(CNCCN3CCCCC3=O)CC[C@]3(C)[C@H](CC[C@@H]4[C@@]5(C)CC=C(c6ccc(C(=O)O)cc6)C(C)(C)[C@@H]5CC[C@]43C)[C@@H]12 [Example 78, 4-((1R,3aS,5aR,5bR,7aR,11aS,11bR,13aR,13bR)-5a,5b,8,8,11a-pentamethyl-3a-((2-(2-oxopiperidin-1-yl)ethylamino)methyl)-1-(prop-1-en-2-yl)-2,3,3a,4,5,5a,5b,6,7,7a,8,11,11a,11b,12,13,13a,13b-octadecahydro-1H-cyclopenta[a]chrysen-9-yl)benzoic acid]	< 0.1 µM	–
C=C(C)[C@@H]1CC[C@]2(CN(CCCN3CCS(=O)(=O)CC3)C(=O)CCC(=O)O)CC[C@]3(C)[C@H](CC[C@@H]4[C@@]5(C)CC=C(c6ccc(C(=O)O)cc6)C(C)(C)[C@@H]5CC[C@]43C)[C@@H]12 [Example 16, 4-((1R,3aS,5aR,5bR,7aR,11aS,11bR,13aR,13bR)-5a,5b,8,8,11a-pentamethyl-1-(prop-1-en-2-yl)-3a-((3-(1-dioxo-thiomorpholino)propylamino)methyl)-2,3,3a,4,5,5a,5b,6,7,7a,8,11,11a,11b,12,13,13a,13b-octadecahydro-1H-cyclopenta[a]chrysen-9-yl)benzoic acid]	< 0.1 µM	–
C=C(C)[C@@H]1CC[C@]2(CNC(=O)OCCN3CCNCC3)CC[C@]3(C)[C@H](CC[C@@H]4[C@@]5(C)CC=C(c6ccc(C(=O)O)cc6)C(C)(C)[C@@H]5CC[C@]43C)[C@@H]12 [Example 163, 4-((1R,3aS,5aR,5bR,7aR,11aS,11bR,13aR,13bR)-5a,5b,8,8,11a-pentamethyl-3a-(((2-(piperazin-1-yl)ethoxy)carbonylamino)methyl)-1-(prop-1-en-2-yl)-2,3,3a,4,5,5a,5b,6,7,7a,8,11,11a,11b,12,13,13a,13b-octadecahydro-1H-cyclopenta[a]chrysen-9-yl)benzoic acid]	< 0.1 µM	–
C=C(C)[C@@H]1CC[C@]2(CNCCC(=O)N3CCC4(CC3)OCCO4)CC[C@]3(C)[C@H](CC[C@@H]4[C@@]5(C)CC=C(c6ccc(C(=O)O)cc6)C(C)(C)[C@@H]5CC[C@]43C)[C@@H]12 [Example 126]	–	EC50 (NL43, MT-2 cells infected 4-5 days with NLRluc recombinant virus, numeric value): 0.001 µM
C=C(C)[C@@H]1CC[C@]2(CNCCCC(=O)N3CCS(=O)(=O)CC3)CC[C@]3(C)[C@H](CC[C@@H]4[C@@]5(C)CC=C(c6ccc(C(=O)O)cc6)C(C)(C)[C@@H]5CC[C@]43C)[C@@H]12 [Example 54, 4-((1R,3aS,5aR,5bR,7aR,11aS,11bR,13aR,13bR)-3a-(((4-(1,1-dioxido-4-thiomorpholinyl)-4-oxobutyl)amino)methyl)-1-isopropenyl-5a,5b,8,8,11a-pentamethyl-2,3,3a,4,5,5a,5b,6,7,7a,8,11,11a,11b,12,13,13a,13b-octadecahydro-1H-cyclopenta[a]chrysen-9-yl)benzoic acid]	< 0.1 µM	–
C=C(C)[C@@H]1CC[C@]2(CNCCN3CCS(=O)(=O)CC3)CC[C@]3(C)[C@H](CC[C@@H]4[C@@]5(C)CC=C(c6ccc(C(=O)O)cc6F)C(C)(C)[C@@H]5CC[C@]43C)[C@@H]12 [Example 94, 4-((1R,3aS,5aR,5bR,7aR,11aS,11bR,13aR,13bR)-3a-(((2-(1,1-dioxido-4-thiomorpholinyl)ethyl)amino)methyl)-1-isopropenyl-5a,5b,8,8,11a-pentamethyl-2,3,3a,4,5,5a,5b,6,7,7a,8,11,11a,11b,12,13,13a,13b-octadecahydro-1H-cyclopenta[a]chrysen-9-yl)-3-fluorobenzoic acid]	< 0.1 µM	–
C=C(C)[C@@H]1CC[C@]2(CN)CC[C@]3(C)[C@H](CC[C@@H]4[C@@]5(C)CC=C(c6ccc(C(=O)O)cc6)C(C)(C)[C@@H]5CC[C@]43C)[C@@H]12 [Example 174, 4-((1R,3aS,5aR,5bR,7aR,11aS,11bR,13aR,13bR)-3a-(aminomethyl)-5a,5b,8,8,11a-pentamethyl-1-(prop-1-en-2-yl)-2,3,3a,4,5,5a,5b,6,7,7a,8,11,11a,11b,12,13,13a,13b-octadecahydro-1H-cyclopenta[a]chrysen-9-yl)benzoic acid]	< 0.1 µM	–
C=C(C)[C@@H]1CC[C@]2(CNCCNC(C)=O)CC[C@]3(C)[C@H](CC[C@@H]4[C@@]5(C)CC=C(c6ccc(C(=O)O)cc6)C(C)(C)[C@@H]5CC[C@]43C)[C@@H]12 [Example 7, 4-((1R,3aS,5aR,5bR,7aR,11aS,11bR,13aR,13bR)-3a-((2-acetamidoethylamino)methyl)-5a,5b,8,8,11a-pentamethyl-1-(prop-1-en-2-yl)-2,3,3a,4,5,5a,5b,6,7,7a,8,11,11a,11b,12,13,13a,13b-octadecahydro-1H-cyclopenta[a]chrysen-9-yl)benzoic acid]	< 0.1 µM	–
C=C(C)[C@@H]1CC[C@]2(CNCCC(=O)N3CCC[C@H]3C(=O)O)CC[C@]3(C)[C@H](CC[C@@H]4[C@@]5(C)CC=C(c6ccc(C(=O)O)cc6)C(C)(C)[C@@H]5CC[C@]43C)[C@@H]12 [Example 102, (S)-1-(3-(((1R,3aS,5aR,5bR,7aR,11aS,11bR,13aR,13bR)-9-(4-carboxyphenyl)-5a,5b,8,8,11a-pentamethyl-1-(prop-1-en-2-yl)-2,3,3a,4,5,5a,5b,6,7,7a,8,11,11a,11b,12,13,13a,13b-octadecahydro-1H-cyclopenta[a]chrysen-3a-yl)methylamino)propanoyl)pyrrolidine-2-carboxylic acid]	< 0.1 µM	–
C=C(C)[C@@H]1CC[C@]2(CNC(=O)c3ccc(S(N)(=O)=O)cc3)CC[C@]3(C)[C@H](CC[C@@H]4[C@@]5(C)CC=C(c6ccc(C(=O)O)cc6)C(C)(C)[C@@H]5CC[C@]43C)[C@@H]12 [Example 144, 4-((1R,3aS,5aR,5bR,7aR,11aS,11bR,13aR,13bR)-5a,5b,8,8,11a-pentamethyl-1-(prop-1-en-2-yl)-3a((4-sulfamoylbenzamido)methyl)-2,3,3a,4,5,5a,5b,6,7,7a,8,11,11a,11b,12,13,13a,13b-octadecahydro-1H-cyclopenta[a]chrysen-9-yl)benzoic acid]	< 0.1 µM	–
C=C(C)[C@@H]1CC[C@]2(CNCCC(=O)N3CCC(=O)CC3)CC[C@]3(C)[C@H](CC[C@@H]4[C@@]5(C)CC=C(c6ccc(C(=O)O)cc6)C(C)(C)[C@@H]5CC[C@]43C)[C@@H]12 [Example 128, 4-((1R,3aS,5aR,5bR,7aR,11aS,11bR,13aR,13bR)-5a,5b,8,8,11a-pentamethyl-3a-((3-oxo-3-(4-oxopiperidin-1-yl)propylamino)methyl)-1-(prop-1-en-2-yl)-2,3,3a,4,5,5a,5b,6,7,7a,8,11,11a,11b,12,13,13a,13b-octadecahydro-1H-cyclopenta[a]chrysen-9-yl)benzoic acid]	< 0.1 µM	–
C=C(C)[C@@H]1CC[C@]2(CN3CC3)CC[C@]3(C)[C@H](CC[C@@H]4[C@@]5(C)CC=C(c6ccc(C(=O)O)cc6)C(C)(C)[C@@H]5CC[C@]43C)[C@@H]12 [Example 177, 4-((1R,3aS,5aR,5bR,7aR,11aS,11bR,13aR,13bR)-3a-(aziridin-1-ylmethyl)-5a,5b,8,8,11a-pentamethyl-1-(prop-1-en-2-yl)-2,3,3a,4,5,5a,5b,6,7,7a,8,11,11a,11b,12,13,13a,13b-octadecahydro-1H-cyclopenta[a]chrysen-9-yl)benzoic acid]	–	EC50 (NL43): < 0.1 µM
C=C(C)[C@@H]1CC[C@]2(CNCCC(=O)N3CCC[C@@H]3C(=O)O)CC[C@]3(C)[C@H](CC[C@@H]4[C@@]5(C)CC=C(c6ccc(C(=O)O)cc6)C(C)(C)[C@@H]5CC[C@]43C)[C@@H]12 [Example 100, (R)-1-(3-(((1R,3aS,5aR,5bR,7aR,11aS,11bR,13aR,13bR)-9-(4-carboxyphenyl)-5a,5b,8,8,11a-pentamethyl-1-(prop-1-en-2-yl)-2,3,3a,4,5,5a,5b,6,7,7a,8,11,11a,11b,12,13,13a,13b-octadecahydro-1H-cyclopenta[a]chrysen-3a-yl)methylamino)propanoyl)pyrrolidine-2-carboxylic acid]	< 0.1 µM	–
